Reference: publication PMC6078708 (Neuropharmacology, 2018)
Read-outs that look alike come from different tables or passages of the source.

Columns and labels:
α7 nAChR S248A = α7 nAChR S248A (Homo sapiens, UniProt P36544, S271A); assay: cell-based
Method: (§1) Site-directed mutagenesis was performed using the QuikChange mutagenesis kit (Agilent Technologies) and verified by nucleotide sequencing (Source Bioscience).
(§2) Heterologous expression was achieved by cytoplasmic injection of in vitro transcribed cRNA. Prior to in vitro synthesis of cRNA plasmid cDNA was linearized by restriction enzyme digestion and purified with QIAQuik PCR purification kit (Qiagen). In vitro synthesis of cRNA was performed using mMessage mMachine SP6 and T7 transcription kits (ThermoFisher Scientific). Oocytes were injected with approximately 9 ng cRNA using a Drummond variable volume microinjector. […] Experiments were performed on oocytes after 3–5 days of incubation. […] Application of compounds was controlled by LabChart software (AD Instruments) using a BPS-8 solenoid valve solution exchange system (ALA Scientific Inc). Allosteric modulators were pre-applied for 30 s before co-application with agonist.
(§3) Data are presented as means ± SEM of at least three independent experiments, that were conducted on separate oocytes. For multiple comparisons, statistical significance was determined with an unpaired one-way analysis of variance (ANOVA). Post-hoc analysis was performed with a Tukey multiple comparison test. For individual comparisons, statistical significance was determined using unpaired t-tests.

α7 nAChR T288A = α7 nAChR T288A (Homo sapiens, UniProt P36544, T311A); assay: cell-based
Sequence of α7 nAChR T288A (P36544 23-502 T311A): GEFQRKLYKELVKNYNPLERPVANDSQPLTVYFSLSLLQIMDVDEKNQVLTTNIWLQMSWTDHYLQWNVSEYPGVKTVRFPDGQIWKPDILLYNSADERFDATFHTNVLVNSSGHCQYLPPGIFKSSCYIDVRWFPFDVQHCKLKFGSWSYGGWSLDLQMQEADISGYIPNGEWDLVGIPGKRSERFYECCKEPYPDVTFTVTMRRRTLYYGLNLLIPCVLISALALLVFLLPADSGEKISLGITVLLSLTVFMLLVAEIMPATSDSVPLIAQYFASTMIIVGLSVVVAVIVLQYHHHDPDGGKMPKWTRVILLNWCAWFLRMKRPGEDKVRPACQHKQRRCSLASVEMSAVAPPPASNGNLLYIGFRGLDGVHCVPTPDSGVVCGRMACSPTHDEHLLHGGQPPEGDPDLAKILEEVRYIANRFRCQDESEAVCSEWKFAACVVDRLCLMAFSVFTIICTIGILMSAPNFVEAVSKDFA
Method: as §1, §2, §3

α7 nAChR S222M = target: T1, α7 nAChR S222M (Homo sapiens, UniProt P36544, S245M); assay: Two-electrode voltage-clamp recording of mutated α7 nAChR (S222M) in Xenopus oocytes; type: cell-based
T1 construct: expressed in transfected cells; host or cells: Xenopus laevis oocytes, injected with in vitro transcribed cRNA
T1 sequence (P36544 23-502 S245M): as the sequence (P36544 23-502 T311A) above, with S223M, A289T counted along it
Method: as §1, §2, §3

mouse 5-HT3AR = target: T2, mouse 5-HT3AR (Mus musculus, UniProt P23979); conditions: for response evoked by maximal agonist concentration in presence of compound: compound 100 μM, 30 μM 5-HT
T2 sequence (P23979 24-489): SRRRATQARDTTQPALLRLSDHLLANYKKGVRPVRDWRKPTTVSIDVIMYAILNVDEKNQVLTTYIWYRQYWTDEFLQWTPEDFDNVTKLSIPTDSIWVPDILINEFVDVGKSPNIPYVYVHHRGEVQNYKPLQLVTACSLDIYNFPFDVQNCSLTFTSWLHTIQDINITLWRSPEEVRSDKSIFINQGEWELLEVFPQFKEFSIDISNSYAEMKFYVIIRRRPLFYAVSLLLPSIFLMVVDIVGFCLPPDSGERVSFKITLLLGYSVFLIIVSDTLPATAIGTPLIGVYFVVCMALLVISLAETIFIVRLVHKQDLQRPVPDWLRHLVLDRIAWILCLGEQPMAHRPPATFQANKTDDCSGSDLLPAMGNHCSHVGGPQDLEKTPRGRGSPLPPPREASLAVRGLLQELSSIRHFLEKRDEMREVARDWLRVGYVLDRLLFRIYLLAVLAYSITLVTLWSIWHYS
Method: as §1, §2, §3

[1] = target: α7/5-HT3AR chimera (extracellular domain of human α7 nAChR fused to transmembrane and C-terminal domain of mouse 5-HT3AR) (UniProt P23979+P36544, M226I/T225I); conditions: for effect on response evoked by maximal agonist concentration: compound 100 μM, 3 mM ACh
Sequence of α7/5-HT3AR chimera (extracellular domain of human α7 nAChR fused to transmembrane and C-terminal domain of mouse 5-HT3AR) (P36544+P23979 fused P36544:T225I/P36544:M226I): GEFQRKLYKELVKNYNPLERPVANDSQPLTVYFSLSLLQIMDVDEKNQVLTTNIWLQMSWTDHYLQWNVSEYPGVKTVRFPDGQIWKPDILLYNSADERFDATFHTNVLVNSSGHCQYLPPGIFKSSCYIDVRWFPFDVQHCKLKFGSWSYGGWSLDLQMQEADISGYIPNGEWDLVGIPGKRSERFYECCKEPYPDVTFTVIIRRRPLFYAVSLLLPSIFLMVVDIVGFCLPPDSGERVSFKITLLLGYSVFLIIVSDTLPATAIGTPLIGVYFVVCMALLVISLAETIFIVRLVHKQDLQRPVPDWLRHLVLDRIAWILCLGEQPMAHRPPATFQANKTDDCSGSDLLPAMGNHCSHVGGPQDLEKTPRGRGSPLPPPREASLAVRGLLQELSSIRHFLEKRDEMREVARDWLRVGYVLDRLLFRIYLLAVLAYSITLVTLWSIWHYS
Method: as §1, §2, §3

human α7 nAChR = target: T3, human α7 nAChR (Homo sapiens, UniProt P36544); assay: Two-electrode voltage-clamp recording of wild-type human α7 nAChR expressed in Xenopus oocytes; type: cell-based; conditions: for nature of antagonism against a range of ACh concentrations / response evoked by maximal agonist concentration in presence of compound: compound 100 μM; for response evoked by maximal agonist concentration in presence of compound: 3 mM ACh; for response to an EC50 concentration of ACh, % of the control response: compound 1 mM, ACh 100 μM; for effect when applied alone: no ACh; for activity at 100 µM: read-out: normalised response to EC50 ACh in presence of compound
T3 construct: expressed in transfected cells; host or cells: Xenopus laevis oocytes, injected with in vitro transcribed cRNA
T3 sequence (P36544 23-502): as the sequence (P36544 23-502 T311A) above, with A289T counted along it
Method: as §2, with “Allosteric modulators were pre-applied for 30 s before co-application with agonist.” left out
as §3

α7 nAChR M260L = target: T4, α7 nAChR M260L (Homo sapiens, UniProt P36544, M283L); assay: Two-electrode voltage-clamp recording of mutated α7 nAChR (M260L) in Xenopus oocytes; type: cell-based; conditions: for activity at 100 µM: read-out: normalised response to EC50 ACh in presence of compound
T4 construct: expressed in transfected cells; host or cells: Xenopus laevis oocytes, injected with in vitro transcribed cRNA
T4 sequence (P36544 23-502 M283L): as the sequence (P36544 23-502 T311A) above, with M261L, A289T counted along it
Method: as §1, §2, §3

α7 nAChR L247A = target: T5, α7 nAChR L247A (Homo sapiens, UniProt P36544, L247A/L270A); assay: Two-electrode voltage-clamp recording of mutated α7 nAChR (L247A) in Xenopus oocytes; type: cell-based
T5 construct: expressed in transfected cells; host or cells: Xenopus laevis oocytes, injected with in vitro transcribed cRNA
T5 sequence (P36544 23-502 L247A/L270A): as the sequence (P36544 23-502 T311A) above, with L225A, L248A, A289T counted along it
Method: as §1, §2, §3

[2] = read-out: normalised response to EC50 ACh in presence of compound
[3] = co-application only, no pre-application
[4] = furosemide 1 mM, EC50 ACh (100 μM)
[5] = furosemide 1 mM, EC50 agonist (100 μM ACh)
[6] = furosemide 1 mM, maximal agonist (3 mM ACh)

Sequence of α7 nAChR S248A (P36544 23-502 S271A): as the sequence (P36544 23-502 T311A) above, with S249A, A289T counted along it

CNS(=O)(=O)c1ccc(N/C=C2\C(=O)Nc3ccccc32)cc1 [DB08122, N-methyl-4-{[(2-oxo-1,2-dihydro-3h-indol-3-ylidene)methyl]amino}b en z en esul fon ami de]
activity at 100 µM (α7 nAChR S248A; [2]): 99.6 ± 1.6% | activity at 100 µM (α7 nAChR T288A; [2]): 65 ± 1.2% | activity at 100 µM (α7 nAChR S222M; [2]): 77.2 ± 3.7% | response evoked by maximal agonist concentration in presence of compound (mouse 5-HT3AR): did not cause significant inhibition | effect on response evoked by maximal agonist concentration [1]: not significantly different to their effects on 5-HT3ARs | IC50 (human α7 nAChR): 1700 ± 300 µM | type of allosteric modulation (human α7 nAChR): NAMs | antagonism in the absence of pre-application (human α7 nAChR; [3]): significant antagonism | nature of antagonism against a range of ACh concentrations (human α7 nAChR): non-surmountable | response evoked by maximal agonist concentration in presence of compound (human α7 nAChR): 76.0 ± 4.8% | response to an EC50 concentration of ACh, % of the control response (human α7 nAChR): 60.6 ± 1.2% | effect when applied alone (human α7 nAChR; compound alone): None of the three compounds had any significant effect when applied alone | activity at 100 µM (human α7 nAChR): 90.6 ± 1.8% | activity at 100 µM (α7 nAChR M260L): 101 ± 3.1%

NS(=O)(=O)c1cc(C(=O)O)c(NCc2ccco2)cc1Cl [furosemide, Furosemide]
ACh-evoked response in presence of furosemide, relative to control response (α7 nAChR S248A; [4]): 102 ± 5.6% | ACh-evoked response in presence of furosemide, relative to control response (α7 nAChR T288A; [4]): 99.2 ± 1.2% | potentiation of an EC50 concentration of ACh by furosemide (α7 nAChR S222M; [4]): 244 ± 25% | agonist effect when applied alone (mouse 5-HT3AR; compound alone, no 5-HT): no agonist effect | agonist-evoked response in presence of furosemide (mouse 5-HT3AR; furosemide 1 mM, EC50 agonist (1 μM 5-HT)): 93.9 ± 3.7% | agonist-evoked response in presence of furosemide (potentiation) (mouse 5-HT3AR; furosemide 1 mM, maximal agonist (30 μM 5-HT)): 108 ± 2% | agonist-evoked response in presence of furosemide [1, 5]: 98.2 ± 3.4% | agonist-evoked response in presence of furosemide (potentiation) [1, 6]: 108 ± 2% | type of allosteric modulation (human α7 nAChR): type I PAM | potentiation of ACh responses in the absence of pre-application (human α7 nAChR; [3]): no significant potentiation | maximum level of potentiation of ACh responses (human α7 nAChR; furosemide 1 mM): 1.6 ± 0.1 fold | effect when applied alone (human α7 nAChR; furosemide 1 mM): no effect | agonist-evoked response in presence of furosemide (potentiation) (human α7 nAChR; [5]): 136 ± 7% | agonist-evoked response in presence of furosemide (potentiation) (human α7 nAChR; [6]): 149 ± 6% | EC50 (human α7 nAChR; read-out: EC50 for potentiation of agonist-evoked responses): 200 ± 40 µM | agonist-evoked response in presence of furosemide, of the control response (α7 nAChR M260L; [4]): 63 ± 8% | ACh-evoked response in presence of furosemide, relative to control response (α7 nAChR L247A; furosemide 1 mM, EC50 ACh (10 μM)): 99.9 ± 4.3%

Cc1cc(C)[n+](CCc2ccc(S(N)(=O)=O)cc2)c(C)c1 [DB04763, 1-N-(4-sulfamoylphenyl-ethyl)-2,4,6-tri methyl p yr id i ni u m]
response evoked by maximal agonist concentration in presence of compound (mouse 5-HT3AR): 92.1 ± 1.7% | effect on response evoked by maximal agonist concentration [1]: not significantly different to their effects on 5-HT3ARs | type of allosteric modulation (human α7 nAChR): NAMs | antagonism in the absence of pre-application (human α7 nAChR; [3]): significant antagonism | nature of antagonism against a range of ACh concentrations (human α7 nAChR): non-surmountable | response evoked by maximal agonist concentration in presence of compound (human α7 nAChR): 20.0 ± 1.3% | response to an EC50 concentration of ACh, % of the control response (human α7 nAChR): 3.4 ± 0.9% | effect when applied alone (human α7 nAChR; compound alone): None of the three compounds had any significant effect when applied alone | IC50 (human α7 nAChR; read-out: IC50 for inhibition of agonist-evoked responses): 46.4 ± 2.2 µM | activity at 100 µM (human α7 nAChR): 20.1 ± 3.1% | activity at 100 µM (α7 nAChR M260L): 30.1 ± 2.4% | activity at 100 µM (α7 nAChR L247A; [2]): 52.4 ± 0.8%
